Experimental data: patent US20220175798A1, “COMPOSITIONS COMPRISING OXYGENATED CHOLESTEROL SULFATE AND AT LEAST ONE OF POLYALKYLENE GLYCOL, CARBOXYMETHYL CELLULOSE AND POLYOXYLGLYCERIDE” (Durect Corporation, priority 2016, published 2022)

Assays:
[1] = Stability and impurity profile of 25HC3S suspension at room temperature by HPLC; format: physicochemical
Description: (§1) The HPLC technique involved reverse phase HPLC for measuring the concentration of 25HC3 S in the solubility samples.
(§2) Weigh 80 mg of 25HC3S (Lot #B, Passed through 20 mesh screen and Jet-milled, 3rd pass) into a 10 mL vial. Add to the vial, 8 mL of Vehicle PEG 3350 (with 0.15% L-Methionine and 0.9% NaCl). […] A total of 9 samples were dispensed using 1 mL BD syringes attached to 20G1″ or 25G⅝″ Terumo UTW needles for homogeneity analysis by HPLC (Study #14) and stability study (Study #17).

[2] = system: non-alcoholic steatohepatitis (NASH); experiment: Accelerated mouse model of NASH (STZ + HFD), Part II; format: in vivo, C57BL/6J mice; settings: 50 mg/kg daily oral
Description: (§3) The subjects for the study were 36 C57BL/6J male mice. Mice were given 200 μg streptozotocin (STZ) at 2 days after birth and fed high fat diet (HFD) starting at four weeks of age until the remainder of the study (13 weeks of age). This intervention early in their lives induces accelerated progression of non-alcoholic steatohepatitis (NASH) and has been thoroughly characterized.
The Vehicle was a solution of 0.5% (w/v) CMC and 0.05% (v/v) Tween-80 in water. Powdered 25HC3 S was constituted into the Vehicle solution to result in drug concentration of 10 mg/mL. The suspensions were homogenized for approximately 5 minutes (with 10 second breaks every 30-40 seconds) and swirled before dosing to maintain homogeneity. The formulated test article was prepared weekly and kept at room temperature.
Mice were divided into treatment groups (N=10/group) and dosed daily by oral gavage with water (control), Vehicle or 50 mg/kg 25HC3 S starting from Week 9 to Week 13 (28 days treatment).

[3] = system: non-alcoholic steatohepatitis (NASH); experiment: Accelerated mouse model of NASH (STZ + HFD), Part I; format: in vivo, C57BL/6J mice; settings: vs vehicle
Description: as §3, with “30” for “36”, “given a” for “given”, “ug” for “μg”, “(9” for “(13”, “highly” for “thoroughly”
The Vehicle was a solution of 0.5% (w/v) CMC and 0.05% (v/v) Tween-80 in water. Powdered 25HC3 S was constituted into the vehicle solution to result in drug concentrations of 5 and 10 mg/mL. The suspensions were homogenized for approximately 5 minutes being combined, with 10 second breaks every 30-40 seconds and swirled before dosing to maintain homogeneity. The formulated test article was prepared weekly and kept at room temperature.
Mice were divided into treatment groups (N=10/group) and dosed daily by oral gavage with vehicle, 10 mg/kg or 50 mg/kg 25HC3S starting from Week 5 to Week 9 (28 days treatment).

[4] = Solubility of 25HC3S in aqueous solutions, organic solvents or oils; format: physicochemical; settings: various aqueous solutions and FDA approved organic solvents or oils
Text: as §1

[5] = Homogeneity and content uniformity of 25HC3S suspension by HPLC; format: physicochemical
Description: as §1, §2
Weigh 50 and 80 mg of 25HC3S into 2 and 10 mL vials, respectively. Add to the vial, 2 mL and 8 mL of Vehicle PEG 3350 with L-Methionine. […] The vial was inverted 10 times prior to dispensing 0.2 or 0.9 mL into volumetric flasks for methanol dilution for HPLC analysis (total 8 and 7 samples, respectively for HPLC analysis for potency and stability (Study #15).
Weighed approximately 125 mg each of 25HC3S (Lot #C, jet milled and passed through a 20 mesh screen) into a 10 mL vial. Added to vial, 5 mL of Vehicle PEG 3350 without L-Methionine. The vial was placed horizontally in a flat bed shaker, shaken at 100 rpm for up 45 minutes (Mixing Method 4). There were some small wet lumps stuck to the wall and bottom of the glass vial.
Weigh 87 mg of 25HC3S (Lot #C, Jet milled and then pass 20 mesh screen) into a 5-mL vial. Add to the vial 3 mL Vehicle PEG 3350 (without L-methionine and with 0.75% NaCl). […] Weigh another approximately and accurately 90 mg each of 25HC3S (Lot #D and Lot #B, micronized, one pass) into 3 separate 10 mL vials with 3 mL of Vehicle PEG 3350. The vials were placed in a flat bed shaker at 200 rpm for 45 minutes (Mixing Method 4). […] A second set of samples was prepared likewise from the same 3 vials except using 1 mL BD syringe attached to a 27G½″ needle. The homogeneity was determined (Study #19).

[6] = Stress study of suspension formulation with hydrogen peroxide; format: physicochemical; settings: stress study of 25HC3S suspension formulation with hydrogen peroxide
Text: L-Methionine was initially added as an antioxidant. […] Therefore, L-Methionine was removed from the preferred suspension formulation. 25HC3S in Vehicle PEG 3350 (without L-Methionine) was used for further syringeability study (Studies #12 and 13).

[7] = system: bile duct ligation cholestasis; experiment: Bile duct ligated (BDL) rat model of cholestasis; format: in vivo, CD1 rats
Description: The subjects for the study were CD1 male rats (8 weeks of age, 200-225 g). Rats underwent BDL surgery, where the extrahepatic biliary tract was tightly ligated twice with sutures, then cut between the two ligations. A sham group (N=5/group) was also included in a subset of the studies described. […] The Vehicle was a solution of 0.5% (w/v) CMC and 0.05% (v/v) Tween-80 in water. Powdered 25HC3 S was constituted into the Vehicle solution to result in drug concentrations of 0.833 to 5 mg/mL. The suspensions were homogenized for approximately 5 minutes being combined, with 10 second breaks every 30-40 seconds and swirled before dosing to maintain homogeneity. The formulated test article was prepared weekly and kept at room temperature. […] were divided into treatment groups (N=8-10/group) and dosed daily or every 3 days for 9 days by oral gavage. 5, 10, 30 or 60 mg/kg 25HC3S or Vehicle was given starting one day (Day 1) after BDL surgery. On Day 10, serum was collected after an overnight fast and measured for serum biochemistry.

[8] = Week 9 to 13, vs Vehicle, p<0.05
[9] = 10 mg/kg daily oral gavage 28 days
[10] = daily oral 10 or 30 mg/kg (follow-up study)

Question: Which odor after storage ([1]; 25HC3S in Vehicle PEG 3350 with L-Methionine, room temperature for a few months) does the source give for `C[C@H](CCCC(C)(C)O)[C@H]1CC[C@H]2[C@@H]3CC=C4C[C@@H](OS(=O)(=O)[O-])CC[C@]4(C)[C@H]3CC[C@]12C.[Na+]` [Formulation 25HC3S, 5-cholesten-3, 25-diol, 3-sulfate] here?
Answer: produced a sulfur-like odor

Question: What about the “% peak area for 25HC3S” value ([1]; after 2 weeks at RT, 25 mg/mL in Vehicle PEG 3350 (with 0.15% L-Methionine), 25HC3S plus two impurities as 100%, n=2) of the same compound?
Answer: approximately 99.17%

Question: What about the drug potency ([1]; after 2 weeks at RT, time 0 concentration as 100%, n=2, 25 mg/mL in Vehicle PEG 3350 (with 0.15% L-Methionine)) of the same compound?
Answer: 103.7%

Question: And the “25HC3S by peak area normalization” value ([1]; final suspension formulation 25 mg/mL, room temperature up to 14 days)?
Answer: 99.172%

Question: What about the “stable at ambient room temperature” value ([1]; suspension 25 mg/mL in Vehicle PEG 3350 (with 0.15% L-Methionine)) of the same compound?
Answer: at least 2 weeks

Question: What about the “NAS (NAFLD activity score)” value ([2]; Week 9 to 13, vs Vehicle) of the same compound?
Answer: trend of reduction

Question: What about the hepatocyte ballooning [2, 8] of the same compound?
Answer: significant reduction

Question: What about the “percent area of fibrosis (Sirius red-positive area)” value [2, 8] of the same compound?
Answer: significantly decreased

Question: And the extent of fibrosis ([2]; compared to baseline Week 9 mice)?
Answer: trended lower

Question: What about the “H&E-stained liver sections” value [3, 9] of the same compound?
Answer: No obvious changes

Question: What about the “percent area of fibrosis” value [3, 9] of the same compound?
Answer: no significant difference

Question: What about the “percent area of fibrosis (Sirius red-positive area)” value ([3]; 50 mg/kg daily oral gavage 28 days, p=0.0061) of the same compound?
Answer: significantly decreased

Question: What about the “NAS (NAFLD activity score)” value ([3]; 50 mg/kg daily oral gavage 28 days, p=0.0088) of the same compound?
Answer: significant reduction

Question: What about the solubility [4] of the same compound?
Answer: low solubility

Question: And the homogeneity ([5]; 10 mg/mL in Vehicle PEG 3350 (with 0.15% L-Methionine), n=7, 0.9 mL each, Study #15)?
Answer: 100.5-103.1 % LS

Question: What about the homogeneity ([5]; 10 mg/mL suspension in Vehicle PEG 3350 (0.15% L-Methionine, 0.9% NaCl), Lot #B jet-milled 3rd pass, n=9, Study #14) of the same compound?
Answer: 94.3-98.1 % LS

Question: And the homogeneity ([5]; 25 mg/mL in Vehicle PEG 3350 (with 0.15% L-Methionine), n=8, 0.2 mL each, Study #15)?
Answer: 96.2-109.4 % LS

Question: And the “homogeneity (and content uniformity)” value ([5]; final improved formulation 25 mg/mL (Study #19))?
Answer: 89.3-105.9 % label strength

Question: And the oxidative degradation [6]?
Answer: oxidative degradation did not occur

Question: What about the “body weight and other serum chemistry measures” value ([7]; daily oral 5 mg/kg) of the same compound?
Answer: little or no differences

Question: And the “Body temperature on Day 9” value ([7]; daily oral 5 mg/kg, vs Vehicle)?
Answer: significantly improved

Question: What about the spleen-to-body weight ratio ([7]; daily oral 5 mg/kg, vs Vehicle) of the same compound?
Answer: significantly improved

Question: And the “body weight gain after surgery” value ([7]; daily oral 30 mg/kg (pilot study))?
Answer: significantly improved

Question: What about the “body weight gain after surgery” value ([7]; daily oral 60 mg/kg (pilot study)) of the same compound?
Answer: modest increases

Question: And the liver histological analyses [7, 10]?
Answer: no differences

Question: What about the serum liver enzymes [7, 10] of the same compound?
Answer: trends of decrease

Question: What about the “Serum total, direct and indirect bilirubin levels” value ([7]; daily oral 10 or 30 mg/kg, vs Vehicle (follow-up study)) of the same compound?
Answer: significantly reduced

Question: What about the “serum biochemistry analytes, including serum bilirubin” value ([7]; daily oral 30 or 60 mg/kg (pilot study)) of the same compound?
Answer: No significant differences

Question: And the “body weight, organ-to-bodyweight ratios or serum clinical chemistry” value ([7]; oral every three days (Days 1, 4, 7), 10 or 30 mg/kg)?
Answer: no significant differences
